Assay results from patent US20260098017A1, “NOVEL AROMATIC RING DERIVATIVE CONTAINING AMIDE SUBSTITUTION AND USE THEREOF” (TIANJIN PHARMACEUTICAL BIOTECHNOLOGY CO., LTD., priority 2022, published 2026).

Key:
TYK2 JH1 kinase = target: T1, TYK2 JH1 kinase (Homo sapiens, UniProt P29597); assay: TYK2 JH1 enzyme assay in vitro (TR-FRET); type: biochemical
T1 sequence (P29597 897-1176 limits assumed): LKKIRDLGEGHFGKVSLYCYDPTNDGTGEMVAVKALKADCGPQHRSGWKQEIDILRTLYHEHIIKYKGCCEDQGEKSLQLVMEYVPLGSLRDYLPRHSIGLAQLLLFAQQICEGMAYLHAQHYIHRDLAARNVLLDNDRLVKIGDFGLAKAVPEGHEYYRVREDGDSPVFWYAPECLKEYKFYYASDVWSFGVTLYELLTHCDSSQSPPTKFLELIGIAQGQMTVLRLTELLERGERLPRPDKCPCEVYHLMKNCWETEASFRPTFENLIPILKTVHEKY

JAK3 JH1 kinase = JAK3 JH1 kinase (Homo sapiens, UniProt P52333); assay: JAK3 JH1 enzyme assay in vitro (TR-FRET); type: biochemical; details: TR-FRET; read-out: JAK 3 JH1 IC50
JAK1 JH1 kinase = JAK1 JH1 kinase (Homo sapiens, UniProt P23458); assay: JAK1 JH1 enzyme assay in vitro (TR-FRET); type: biochemical; details: read-out: JAK 1 JH1 IC50
[1] = test system: mouse asthma model induced by OVA; assay: Mouse asthma model induced by OVA: airway hyperresponsiveness (Penh); type: in vivo; details: for Enhanced pause (Penh) value: 2 mg/mL, 50 μL endotracheally, once daily for 3 days
Protocol: The efficacy of the compounds according to the present invention in a mouse asthma model induced by OVA could be assessed using the following method:
Test sample: the compound of Example 3 was weighed accurately, and dissolved in DMSO to prepare a solution at a concentration of 2 mg/mL.
30 female BALB/c mice were adaptively fed. After one week, 10 mice were randomly taken out and fed as a blank control group, and 20 mice were selected to establish the asthma model. The model mice were intraperitoneally injected with 0.2 mL of sensitizing solution for sensitization respectively on 0, 7 and 14 days. The sensitization solution contained 50 μg of OVA and 2 mg of Al(OH)3. The blank control group received an equivalent volume of physiological saline.
From day 21 to day 23 after sensitization, the mice in the model group and the administration group were subjected to nebulization stimulation with 5% OVA for 30 min, and the mice in the blank control group received nebulization with physiological saline for the same duration.
30 min before daily stimulation of the mice, 50 μl of physiological saline was administered endotracheally to mice in the blank control and model groups, and 50 μl of the corresponding drug was administered endotracheally to mice in the Example 3 compound group, once daily for 3 consecutive days.
Airway hyperresponsiveness was measured in each group of mice after the last stimulation. The mice were placed in a whole-body plethysmograph. After recording the baseline values of enhanced pause (Penh), the mice were stimulated by nebulized methacholine, wherein the concentrations of the methacholine were 0, 6.25 and 12.5 mg/mL from low to high, the nebulization volume was 100 μL per dose for 60 s.
Statistical analysis was conducted using SPSS software, Measurement data were expressed as mean±standard deviation. One Way ANOVA was used for inter-group comparisons, LSD test was used for those with homogeneous variance, and Dunnett-t test was used for those with heterogeneous variance. Differences were statistically significant with P<0.05.

[2] = target: Ba/F3 cell line expressing TYK2 (Homo sapiens, UniProt P29597, cells depend on it, form not given); assay: In vitro cellular inhibition assay (Ba/F3 cell proliferation, CellTiter-Glo); type: cell-based; details: read-out: IC50 (the source's name)
Method in brief: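 Ba/F3 cells dependent on TYK2 were exposed to serially diluted compound, then viability was read by CellTiter-Glo luminescence. Inhibition (%) was calculated from RLU relative to max and min controls, and IC50 was obtained by curve fitting.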

SD rats = assay: Four-week repeat-dose toxicity study in rats; type: in vivo; details: rat, 28 days, 2% cream 500 mg bid topical, 100 mg/kg
Protocol: Each group contained 10 animals, with an equal number of males and females.
The treatment lasted for four consecutive weeks (28 days).
• Daily clinical observation and body weight measurement; • After the last administration, rats were fasted for more than 16 h, anesthetized on the next day, and blood was collected from abdominal aorta. Tests such as hematology (EDTA-2K anticoagulation), blood biochemistry (serum), coagulation function (separated plasma with sodium citrate anticoagulation) and the like were respectively carried out; • After euthanization of the animals, the tissue organs were dissected and observed in general, and organ weights and coefficients (heart, liver, spleen, kidney, thymus) were determined; • The skin and lung tissues of the administration site were taken for HE staining to observe the changes in epidermal thickness, dermal inflammatory cells and pulmonary lesions.

TYK2 JH2 pseudokinase = TYK2 JH2 pseudokinase (Homo sapiens, UniProt P29597); assay: TYK2 JH2 enzyme binding assay in vitro (TR-FRET)
Protocol: Instrumentation: Envision microplate reader (PerkinElmer), ECHO550 (LABCYTE).
Method: the inhibitory effects of compounds on TYK2 JH2 pseudokinase was tested using time-resolved fluorescence resonance energy transfer (TR-FRET) method.
Procedure: compounds were prepared into 10 mM stock solutions using DMSO, which were further diluted into compound dilutions (200×) with different concentration gradients in DMSO, and the compound dilutions (200×) were transferred to a 384-well assay plate using an Echo instrument. […] TYK2 JH2 pseudokinase, Tb antibody, and Tracer working solutions were prepared using the dilution buffer, respectively. 5 uL of TYK2 JH2 pseudokinase working solution (final concentration 0.5 nM) was added to a 384-well assay plate, and centrifuged at 1000 rpm for 30 s. 5 uL of Tb antibody (final concentration 1×) was added to the 384-well assay plate, and centrifuged at 1000 rpm for 30 s. 5 uL of Tracer (final concentration 0.5 nM) was added to the 384-well assay plate, and centrifuged at 1000 rpm for 30 s. Incubation was performed at room temperature for 60 min, and then at 4° C. overnight.
Data Analysis: XLfit, a software developed by IDBS and integrated into the Microsoft Excel environment, was used to process and analyze the test data.

Chain of JAK3 JH1 kinase (P52333 822-1111 limits assumed): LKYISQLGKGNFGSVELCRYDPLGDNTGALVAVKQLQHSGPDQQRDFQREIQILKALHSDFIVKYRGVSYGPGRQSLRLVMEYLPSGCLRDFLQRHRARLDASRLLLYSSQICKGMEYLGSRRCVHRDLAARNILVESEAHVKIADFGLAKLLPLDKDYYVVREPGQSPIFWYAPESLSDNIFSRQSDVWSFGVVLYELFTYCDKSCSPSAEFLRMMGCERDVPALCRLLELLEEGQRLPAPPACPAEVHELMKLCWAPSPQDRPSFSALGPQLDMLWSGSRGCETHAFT
Chain of JAK1 JH1 kinase (P23458 875-1153 limits assumed): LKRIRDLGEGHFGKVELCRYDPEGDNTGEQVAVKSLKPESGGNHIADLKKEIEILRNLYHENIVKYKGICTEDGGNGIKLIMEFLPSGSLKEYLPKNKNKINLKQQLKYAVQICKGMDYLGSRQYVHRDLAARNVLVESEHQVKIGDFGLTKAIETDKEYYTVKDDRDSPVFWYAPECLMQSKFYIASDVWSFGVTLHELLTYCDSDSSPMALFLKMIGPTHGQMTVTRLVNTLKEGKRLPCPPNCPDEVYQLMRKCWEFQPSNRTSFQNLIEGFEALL
Chain of TYK2 JH2 pseudokinase (P29597 589-875 limits assumed): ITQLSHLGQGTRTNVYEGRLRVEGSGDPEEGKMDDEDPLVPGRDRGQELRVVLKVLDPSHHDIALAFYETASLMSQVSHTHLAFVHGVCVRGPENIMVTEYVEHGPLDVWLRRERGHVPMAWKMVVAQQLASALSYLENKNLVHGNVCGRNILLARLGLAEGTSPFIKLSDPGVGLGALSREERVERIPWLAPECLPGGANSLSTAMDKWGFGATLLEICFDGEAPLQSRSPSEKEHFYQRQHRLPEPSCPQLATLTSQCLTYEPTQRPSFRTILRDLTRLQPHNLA

## [2H]C([2H])([2H])NC(=O)c1nnc(NC(=O)C2CC2)cc1Nc1cccc(C(=O)Nc2cccc(C)c2)c1OC [Example 3]
TYK2 JH1 kinase
  IC50: > 10 µM
JAK3 JH1 kinase
  IC50: > 10 µM
JAK1 JH1 kinase
  IC50: > 10 µM
[1]; administration before stimulation, P<0.05
  Effect on enhanced pause (Penh) values compared to the model group: significantly reduce
[1]; methacholine 0 mg/mL
  Enhanced pause (Penh) value: 0.86 ± 0.31
[1]; methacholine 6.25 mg/mL
  Enhanced pause (Penh) value: 1.79 ± 0.45
[1]; methacholine 12.5 mg/mL
  Enhanced pause (Penh) value: 2.94 ± 0.66
[2]
  GI50: 1 to 5 nM
SD rats
  Effects on general state, body weight, organ coefficient, skin and pulmonary pathology, and other hematological, coagulation and blood biochemical indicators: no significant effects
  Hematology Gran: 1.7 ± 1.0 ×10^9/L
  Hematology Lymph: 6.4 ± 2.7 ×10^9/L
  Hematology Mono: 0.2 ± 0.1 ×10^9/L
  Hematology PLT: 1001.8 ± 408.1 ×10^9/L
TYK2 JH2 pseudokinase
  IC50: 0.274 nM
